Experimental data as given in ChEMBL document CHEMBL5338775, “Discovery of a Novel Class of PROTACs as Potent and Selective Estrogen Receptor α Degraders to Overcome Endocrine-Resistant Breast Cancer In Vitro and In Vivo” (J Med Chem, 2023).
Activity calls are given as the source filed them. No cut-off for these calls is given here.

Columns and labels:
[1] = in vitro; settings: human, MCF-10A cells
[2] = Toxicity in BALB/c nude mouse xenografted with human tamoxifen-sensitive MCF7 cells assessed as reduction in body weight at 1 to 10 micromol/kg, ip administered once every 2 days and measured every 2 days; type: organism-based; settings: in vivo, 48 h, dose 1-10 µmol/kg
[3] = molecular target: T1, von Hippel-Lindau disease tumor suppressor/Estrogen receptor (Homo sapiens) (UniProt P03372+P40337); assay: PROTAC activity at VHL/ERalpha in ER-positive human MCF7 cells assessed as induction of ERalpha degradation at 1 uM incubated for 12 hrs in presence of N-ethyl-5,6-bis(4-hydroxyphenyl)-N-(4-methoxyphenyl)-7-oxabicyclo[2.2.1]hept-5-ene-2-sulfonamide by Western blot analysis; type: cell-based
T1 sequence (P40337 whole entry, looked up, one chain of several): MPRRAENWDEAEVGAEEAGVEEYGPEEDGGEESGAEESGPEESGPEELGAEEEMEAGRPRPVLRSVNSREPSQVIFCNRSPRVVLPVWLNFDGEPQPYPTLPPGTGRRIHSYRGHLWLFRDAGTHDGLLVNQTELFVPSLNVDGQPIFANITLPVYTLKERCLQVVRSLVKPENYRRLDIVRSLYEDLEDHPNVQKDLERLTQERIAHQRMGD

[4] = Toxicity in BALB/c nude mouse xenografted with human tamoxifen-sensitive MCF7 cells assessed as pathological changes in liver at 1 to 10 micromol/kg, ip administered once every 2 days by H and E staining based assay; type: organism-based; settings: in vivo, 48 h, dose 1-10 µmol/kg
[5] = tested on: T47D; assay: Inhibition of gene transcription in human T47D cells assessed as reduction in Pol II occupancy at IGFBP4 promoter region by ChIP-seq analysis; type: functional, cell-based
[6] = tested on: MCF7; assay: Antitumor activity against human tamoxifen-sensitive MCF7 cells xenografted in BALB/c nude mouse assessed as increase in tumor necrosis area at 5 micromol/kg, ip administered once every 2 days by […] staining based analysis; type: functional, organism-based; settings: dose 5.0 µmol/kg
[7] = tested on: tamoxifen-resistant LCC2 cell; assay: Antitumor activity against human ER-positive tamoxifen-resistant LCC2 cells xenografted in BALB/c nude mouse assessed as reduction in tumor growth at 5 micromol/kg, ip administered once every 2 days and measured every 2 days; type: functional, organism-based; settings: dose 5.0 µmol/kg
[8] = molecular target: T2, Estrogen receptor beta (Homo sapiens, UniProt Q92731)
T2 sequence (Q92731 whole entry): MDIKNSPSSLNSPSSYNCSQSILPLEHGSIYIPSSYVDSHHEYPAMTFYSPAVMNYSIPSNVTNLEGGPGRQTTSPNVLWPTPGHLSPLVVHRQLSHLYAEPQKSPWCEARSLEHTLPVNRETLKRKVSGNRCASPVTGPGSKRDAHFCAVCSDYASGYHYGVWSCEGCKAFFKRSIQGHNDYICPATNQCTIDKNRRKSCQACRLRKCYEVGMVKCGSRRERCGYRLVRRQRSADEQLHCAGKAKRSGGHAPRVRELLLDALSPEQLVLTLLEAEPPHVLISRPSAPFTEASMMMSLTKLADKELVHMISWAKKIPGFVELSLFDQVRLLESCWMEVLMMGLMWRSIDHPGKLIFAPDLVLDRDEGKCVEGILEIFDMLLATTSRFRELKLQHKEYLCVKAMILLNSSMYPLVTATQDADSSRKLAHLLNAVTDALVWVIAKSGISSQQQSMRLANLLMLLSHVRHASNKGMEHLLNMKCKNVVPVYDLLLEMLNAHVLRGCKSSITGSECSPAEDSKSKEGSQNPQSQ

[9] = molecular target: T1, von Hippel-Lindau disease tumor suppressor/Estrogen receptor (Homo sapiens); assay: PROTAC activity at VHL/ERalpha in ER-positive human tamoxifen-resistant LCC2 cells assessed as induction of ERalpha degradation at 2 uM incubated for 12 hrs by Western blot analysis; type: cell-based; settings: tamoxifen-resistant LCC2 cell
[10] = molecular target: T1, von Hippel-Lindau disease tumor suppressor/Estrogen receptor (Homo sapiens); assay: PROTAC activity at VHL/ERalpha in ER-positive human MCF7 cells assessed as induction of ERalpha degradation at 1 uM incubated for 12 hrs in presence of proteasome inhibitor, MG132 by Western blot analysis; type: cell-based
[11] = tested on: T47D; assay: Inhibition of gene transcription in human T47D cells assessed as reduction in H3K27ac levels in IGFBP4 promoter region by ChIP-seq analysis; type: functional, cell-based
[12] = molecular target: T1, von Hippel-Lindau disease tumor suppressor/Estrogen receptor (Homo sapiens); assay: PROTAC activity at VHL/wild type ERalpha in ER-positive human MCF7 cells assessed as induction of ERalpha degradation at 1 uM incubated for 12 hrs by Western blot analysis; type: cell-based
[13] = molecular target: T3, Estrogen receptor (Homo sapiens, UniProt P03372)
T3 sequence (P03372 whole entry): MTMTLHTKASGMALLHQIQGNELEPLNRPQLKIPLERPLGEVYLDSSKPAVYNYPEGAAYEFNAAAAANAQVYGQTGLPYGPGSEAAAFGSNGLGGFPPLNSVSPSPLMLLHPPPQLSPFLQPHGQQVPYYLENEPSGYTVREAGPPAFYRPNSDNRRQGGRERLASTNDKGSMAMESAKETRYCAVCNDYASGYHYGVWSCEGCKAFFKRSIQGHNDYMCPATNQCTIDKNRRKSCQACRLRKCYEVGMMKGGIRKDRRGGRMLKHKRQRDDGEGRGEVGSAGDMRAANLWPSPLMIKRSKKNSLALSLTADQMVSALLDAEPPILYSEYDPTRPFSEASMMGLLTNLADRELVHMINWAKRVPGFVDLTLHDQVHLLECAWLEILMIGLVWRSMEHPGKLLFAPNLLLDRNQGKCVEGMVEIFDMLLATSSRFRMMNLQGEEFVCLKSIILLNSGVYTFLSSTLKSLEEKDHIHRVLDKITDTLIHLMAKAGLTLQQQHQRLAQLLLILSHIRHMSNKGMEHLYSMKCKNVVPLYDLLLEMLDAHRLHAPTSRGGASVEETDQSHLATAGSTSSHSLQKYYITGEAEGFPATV

[14] = tested on: T47D; assay: Inhibition of gene transcription in human T47D cells assessed as reduction in H3K27ac levels in GREB1 promoter region by ChIP-seq analysis; type: functional, cell-based
[15] = tested on: MDA-MB-231; assay: cells; settings: Homo sapiens, MDA-MB-231, 72 h
[16] = tested on: MCF7; assay: Antitumor activity against human tamoxifen-sensitive MCF7 cells xenografted in BALB/c nude mouse assessed as reduction in cell proliferation at 5 micromol/kg, ip administered once every 2 days by ki67 staining based analysis; type: functional, organism-based; settings: dose 5.0 µmol/kg
[17] = molecular target: T1, von Hippel-Lindau disease tumor suppressor/Estrogen receptor (Homo sapiens); assay: PROTAC activity at VHL/wild type ERalpha in ER-positive human T47D cells assessed as induction of ERalpha degradation at 2 uM incubated for 12 hrs by Western blot analysis; type: cell-based
[18] = Toxicity in BALB/c nude mouse xenografted with human tamoxifen-sensitive MCF7 cells assessed as pathological changes in heart at 1 to 10 micromol/kg, ip administered once every 2 days by H and E staining based assay; type: organism-based; settings: in vivo, 48 h, dose 1-10 µmol/kg
[19] = tested on: MCF7; assay: Induction of apoptosis in human MCF7 cells at 1 to 10 uM incubated for 24 hrs by Annexin V-FITC/PI staining based analysis; type: functional, cell-based; settings: dose 1-10 µM
[20] = cells; settings: Homo sapiens, Tamoxifen-resistant LCC2 cell, 72 h
[21] = molecular target: T2, Estrogen receptor beta; assay: Binding affinity to ERbeta (unknown origin) assessed as relative binding affinity incubated for 2 hrs by fluorescence polarization assay relative to estradiol
[22] = Selectivity ratio of relative binding affinity for ERalpha (unknown origin) to relative binding affinity to ERbeta (unknown origin)
[23] = molecular target: T1, von Hippel-Lindau disease tumor suppressor/Estrogen receptor (Homo sapiens); assay: PROTAC activity at VHL/ERalpha in ER-positive human MCF7 cells assessed as induction of ERalpha degradation at 1 uM incubated for 12 hrs in presence of (2S,4R)-1-[(2S)-2-amino-3,3-dimethylbutanoyl]-4-hydroxy-N-[(1S)-1-[4-(4-methyl-1,3-thiazol-5-yl)phenyl]ethyl]pyrrolidine-2-carboxamide by Western blot analysis; type: cell-based
[24] = tested on: T47D; assay: cells; settings: Homo sapiens, 72 h
[25] = Toxicity in BALB/c nude mouse xenografted with human tamoxifen-sensitive MCF7 cells assessed as mortality at 1 to 10 micromol/kg, ip administered once every 2 days and measured every 2 days; type: organism-based; settings: in vivo, 48 h, dose 1-10 µmol/kg
[26] = Toxicity in BALB/c nude mouse xenografted with human tamoxifen-sensitive MCF7 cells assessed as pathological changes in kidney at 1 to 10 micromol/kg, ip administered once every 2 days by H and E staining based assay; type: organism-based; settings: in vivo, 48 h, dose 1-10 µmol/kg
[27] = molecular target: T4, Estrogen receptor (Homo sapiens) (UniProt P03372); assay: Inhibition of ERalpha binding to DNA in human T47D cells assessed as reduction in protein occupancy incubated for 6 hrs by ChIP-seq analysis; type: cell-based
T4 sequence (whole entry): T3 sequence (P03372 whole entry)

[28] = tested on: MCF7; assay: Induction of cell cycle arrest in human MCF7 cells at 1 to 10 uM incubated for 24 hrs; type: functional, cell-based; settings: dose 1-10 µM
[29] = tested on: MCF7; assay: Antitumor activity against human tamoxifen-sensitive MCF7 cells xenografted in BALB/c nude mouse assessed as inhibition of tumor growth at 1 to 10 micromol/kg, ip administered once every 2 days and measured every 2 days; type: functional, organism-based; settings: dose 1-10 µmol/kg
[30] = tested on: T47D; assay: cells; settings: Homo sapiens, 72 h; remark: listed apart in the source
[31] = tested on: T47D; assay: Inhibition of nascent GREB1 RNA synthesis in human T47D cells incubated for 6 hrs by 4-thiouridine incorporation assay; type: functional, cell-based
[32] = tested on: T47D; assay: cells; settings: Homo sapiens, 72 h; remark: listed apart in the source
[33] = Selectivity index, ratio of Ki for ERalpha (unknown origin) to Ki for ERbeta (unknown origin)
[34] = molecular target: T1, von Hippel-Lindau disease tumor suppressor/Estrogen receptor (Homo sapiens); assay: PROTAC activity at VHL/ERalpha in ER-positive human MCF7 cells assessed as induction of ERalpha degradation at 0.01 to 10 uM incubated for 12 hrs by Western blot analysis; type: cell-based; settings: dose 0.01-10 µM
[35] = molecular target: von Hippel-Lindau disease tumor suppressor/Estrogen receptor beta (Homo sapiens) (UniProt Q92731+P40337); assay: PROTAC activity at VHL/ERbeta in human NCI-H1975 cells assessed as induction of ERbeta degradation at 1 to 10 uM incubated for 12 hrs by Western blot analysis; type: cell-based; settings: dose 1-10 µM
Sequence of von Hippel-Lindau disease tumor suppressor/Estrogen receptor beta (Homo sapiens) (P40337 whole entry, looked up): as the sequence (P40337 whole entry, looked up, one chain of several) above
Sequence of von Hippel-Lindau disease tumor suppressor/Estrogen receptor beta (Homo sapiens) (Q92731 whole entry, looked up): as the sequence (Q92731 whole entry) above

[36] = tested on: Mus musculus; assay: In vivo protac activity at VHL/ERalpha in BALB/c nude mouse xenografted with human tamoxifen-sensitive MCF7 cells assessed as reduction in ERalpha protein levels in tumor at 1 to 10 micromol/kg, ip administered once every 2 days by Western blot analysis; type: functional, organism-based; settings: dose 1-10 µmol/kg
[37] = tested on: MCF7; assay: cells; settings: Homo sapiens, MCF7, 72 h
[38] = tested on: T47D; assay: Inhibition of gene transcription in human T47D cells assessed as reduction in Pol II occupancy at GREB1 promoter region by ChIP-seq analysis; type: functional, cell-based
[39] = tested on: T47D; assay: Inhibition of nascent IGFBP4 RNA synthesis in human T47D cells incubated for 6 hrs by 4-thiouridine incorporation assay; type: functional, cell-based
[40] = tested on: Mus musculus; assay: In vivo protac activity at VHL/ERalpha in BALB/c nude mouse xenografted with human ER-positive tamoxifen-resistant LCC2 cells assessed as reduction in ERalpha protein levels in tumor at 5 micromol/kg, ip administered once every 2 days by Western blot analysis; type: functional, organism-based; settings: dose 5.0 µmol/kg

Row | Compound | IC50 at 72 h [1] | inhibition [5] | Activity [7] | Ki [8] | Activity [9] | inhibition [11] | Activity [12] | Ki [13] | inhibition [14] | IC50 [15] | Activity [17] | Activity [19] | IC50 [20] | RBA [21] | Selectivity ratio [22] | IC50 [24] | inhibition [27] | Activity [28] | IC50 [30] | inhibition [31] | other results
1 | CCN(c1ccc(OCCCCCC(=O)N[C@H](C(=O)N2C[C@H](O)C[C@H]2C(=O)N[C@@H](C)c2ccc(-c3scnc3C)cc2)C(C)(C)C)cc1)S(=O)(=O)C1CC2OC1C(c1ccc(O)cc1)=C2c1ccc(O)cc1 (some centres not stated) | > 100 µM | Active | Active | 13.1 µM | Active | Active | Active | 2.54 µM | Active | > 100 µM | Active | Active | 12.3 µM | 0.06% | 1.33 | 7.51 µM | Active | Active | 8.12 µM | Active | Activity [2]: Non-Toxic; Activity [3]: inactive; Activity [4]: Non-Toxic; Activity [6]: Active; Activity [10]: inactive; Activity [16]: Active; Activity [18]: Non-Toxic; Activity [23]: inactive; Activity [25]: Non-Toxic; Activity [26]: Non-Toxic; inhibition [29]: Active; IC50 [32]: 9.52 µM; Ratio Ki [33]: 5.16; Activity [34]: Active; Activity [35]: inactive; Activity [36]: Active; IC50 [37]: 0.31 µM; inhibition [38]: Active; inhibition [39]: Active
2 | Cc1ncsc1-c1ccc([C@H](C)NC(=O)[C@@H]2C[C@@H](O)CN2C(=O)[C@@H](NC(=O)CCCCCOc2ccc(N(CC(F)(F)F)S(=O)(=O)C3CC4OC3C(c3ccc(O)cc3)=C4c3ccc(O)cc3)cc2)C(C)(C)C)cc1 (some centres not stated) | 7.69 µM | Active | Active | 26.2 µM | Active | Active | Active | 5.08 µM | Active | > 100 µM | Active | Active | 4.17 µM | 0.03% | 1.33 | 1.35 µM | Active | Active | 1.26 µM | Active | IC50 [32]: 1.51 µM; Activity [40]: Active; Ratio Ki [33]: 5.16; Activity [34]: Active; Activity [35]: inactive; IC50 [37]: 0.05 µM; inhibition [38]: Active; inhibition [39]: Active
